Reference: patent publication US11401271B2, “Fused heterocyclic compound, pyrazole-ring-containing fused heterocyclic compound, agricultural composition containing thereof, and method of using the composition” (SOUTH CHINA AGRICULTURAL UNIVERSITY, priority 2017, dated 2022)
Like-named read-outs stand apart in the source and are kept apart here.

Columns and labels:
Assay in all cases: whole plant or invertebrate
Assay type in all cases: in vivo
Plutella xylostella = details: for mortality at 500 ppm: Plutella xylostella, read-out: Plutella xylostella Mortality (%) 500 ppm
Method: (1) Insecticidal Activity on 2nd-Instar Larvae of Plutella xylostella.
Plutella xylostella (L.) is a lepidoptera pest with a chewing mouthpart and is a common vegetable pest. The 2nd-instar larvae of Plutella xylostella were used as test objects and tested by using a leaf immersion feeding method.
(§1) Operation process: Samples were weighed accurately, and respectively added with 200 μL of dimethyl sulfoxide to prepare 10 g/L mother liquor which was diluted into a concentration of 500 ppm with an aqueous solution containing 0.05% of Tween-80 during the test. A hole puncher with a diameter of 1.0 cm was used to make cleaned cabbage leaves into leaf discs. The leaf discs were immersed in a liquid medicine, taken out after 5 seconds, air-dried naturally, and transferred into a clean vessel. About 35 2nd-instar larvae of Plutella xylostella were put into the vessel and fed at a constant temperature of 28° C. Each concentration was repeated 3 times, and an aqueous solution containing 0.05% of Tween-80 was used as a control group. After being treated for 24 hours, a number of dead Plutella xylostella was counted, and a mortality (%) was calculated according to a formula that mortality (%)=(number of live larvae in the control group−number of treated live larvae)/number of live larvae in the control group*100%.

Solenopsis invicta = details: for mortality at 100 ppm: Solenopsis invicta
Method: (4) Insecticidal Activity on Solenopsis invicta.
As a hymenoptera pests and a social insect, Solenopsis invicta is one of the most destructive invasive organisms. Solenopsis invicta were used as test objects and tested by using a water test tube poison-feeding method.
Operation process: Samples were weighed accurately, and respectively added with 200 μL of dimethyl sulfoxide to prepare 10 g/L mother liquor which was diluted into a concentration of 100 ppm with a mixed aqueous solution containing 0.05% of Tween-80 and 5% of honey during the test. […] The raising test tube was placed in a raising box horizontally, and a small amount of ham sausages were added to the raising test tube as food to raise the Solenopsis invicta at a constant temperature of 25° C. After being treated for 24 hours and 72 hours, a number of live Solenopsis invicta and a number of dead Solenopsis invicta were counted, and a mortality (%) was calculated according to a formula that mortality (%)=(number of live Solenopsis invicta in the control group−number of treated live Solenopsis invicta)/number of live Solenopsis invicta in the control group*100%.

Aphis craccivora = details: for Aphis craccivora Mortality (%): immersion 5 seconds, counted after 24 hours; for mortality at 500 ppm: Aphis craccivora, read-out: Aphis craccivora Mortality (%) 500 ppm
Method: (3) Insecticidal Activity on Aphid Adults.
Aphid is a homoptera pest with a piercing-sucking mouthpart and is a common vegetable pest. Aphis craccivora were taken as test objects and tested by using an impregnation method.
Operation process: Samples were weighed accurately, and respectively added with 200 μL of dimethyl sulfoxide to prepare 10 g/L mother liquor which was diluted into a concentration of 500 ppm with an aqueous solution containing 0.05% of Tween-80 during the test. After the wingless Aphis craccivora adults stably sucked on bean sprouts, the wingless Aphis craccivora adults together with the bean sprouts were immersed into a liquid medicine with a concentration of 500 ppm, taken out after 5 seconds, air-dried naturally, transferred into a clean vessel, and fed at a constant temperature of 23° C. Each concentration was repeated 3 times, and an aqueous solution containing 0.05% of Tween-80 was used as a control group. After being treated for 24 hours, a number of dead Aphis craccivora was counted, and a mortality (%) was calculated according to a formula that mortality (%)=(number of live Aphis craccivora in the control group−number of treated live Aphis craccivora)/number of live Aphis craccivora in the control group*100%.

Spodoptera exigua = details: for mortality at 500 ppm: Spodoptera exigua, read-out: Spodoptera exigua Mortality (%) 500 ppm
Method: (2) Insecticidal Activity on 2nd-Instar Larvae of Spodoptera exigua.
Spodoptera exigua is a lepidoptera pest with a chewing mouthpart and is a common vegetable pest. The 2nd-instar larvae of Spodoptera exigua were used as test objects and tested by using a leaf immersion feeding method.
as §1, with “μL,” for “μL”, “2nd -instar” for “2nd-instar”, “Spodoptera exigua” for “Plutella xylostella”, “group −number” for “group−number”, “group * 100%.” for “group*100%.”

[1] = 500 ppm, 2nd-instar larvae, leaf immersion feeding
[2] = 100 ppm, 24 h, water test tube poison-feeding
[3] = 100 ppm, 72 h, water test tube poison-feeding
[4] = 500 ppm, wingless adults, impregnation method, 24 hours
[5] = 500 ppm, 2nd-instar larvae, leaf immersion feeding, 24 hours
[6] = 24 h, read-out: Solenopsis invicta Mortality (%) 100 ppm 24 h, 100 ppm, 24 h, water test tube poison-feeding
[7] = 72 h, read-out: Solenopsis invicta Mortality (%) 100 ppm 72 h, 100 ppm, 72 h, water test tube poison-feeding

Structure (SMILES)	Plutella xylostella Mortality (%) (Plutella xylostella; [1])	Solenopsis invicta Mortality (%) 24 h (Solenopsis invicta; [2]) [%]	Solenopsis invicta Mortality (%) 72 h (Solenopsis invicta; [3]) [%]	Aphis craccivora Mortality (%) (Aphis craccivora; 500 ppm, wingless adults)	Spodoptera exigua Mortality (%) (Spodoptera exigua; [1])	mortality at 500 ppm (Plutella xylostella) [%]	mortality at 500 ppm (Aphis craccivora; 24 h) [%]	mortality at 500 ppm (Spodoptera exigua; 24 h) [%]	also measured
CCOC(=O)C1(CC(=O)OC)Nc2c([S+]([O-])C(F)(F)F)c(C#N)nn2-c2cncc(Cl)c21 (stereo not shown) [b-23]	96	10	97	100	95	–	–	–	–
COC(=O)Nc1cc2n(n1)-c1cnccc1C(F)(CC(F)(F)F)N2 (stereo not shown) [Compound A40]	–	–	–	–	–	–	–	–	mortality at 500 ppm (Plutella xylostella; [1]): 96%; mortality at 100 ppm (Solenopsis invicta; 24 h, 100 ppm, 24 h, water test tube poison-feeding, read-out: Solenopsis invicta Mortality (%) 100 ppm 24 h): 20%; mortality at 100 ppm (Solenopsis invicta; 72 h, 100 ppm, 72 h, water test tube poison-feeding, read-out: Solenopsis invicta Mortality (%) 100 ppm 72 h): 97%; mortality at 500 ppm (Aphis craccivora; [4]): 100%; mortality at 500 ppm (Spodoptera exigua; [5]): 100%
N#Cc1nn2c(c1[S+]([O-])C(F)(F)F)NC(CCl)(C(O)CO)c1cc(C(F)(F)F)cc(Cl)c1-2 (stereo not shown) [Compound C55]	–	–	–	–	–	88	91	80	mortality at 100 ppm (Solenopsis invicta; [6]): 19%; mortality at 100 ppm (Solenopsis invicta; [7]): 83%
N#Cc1cnn2c1NC(N)(CN)c1ccc(Cl)cc1-2 (stereo not shown) [Compound A24]	–	–	–	–	–	–	–	–	Plutella xylostella Mortality (%) 500 ppm (Plutella xylostella; in vivo): 100%; Solenopsis invicta Mortality (%) 100 ppm 24 h (Solenopsis invicta; in vivo): 44%; Solenopsis invicta Mortality (%) 100 ppm 72 h (Solenopsis invicta; in vivo): 100%; Aphis craccivora Mortality (%) 500 ppm (Aphis craccivora; in vivo): 100%; Spodoptera exigua Mortality (%) 500 ppm (Spodoptera exigua; in vivo): 100%
COC(=O)CC1(C(=O)OC)Nc2c([S+]([O-])C(F)(F)F)c(C#N)nn2-c2cncc(Cl)c21 (stereo not shown) [b-1]	100	20	97	100	100	–	–	–	–
N#Cc1nn2c(c1[S+]([O-])C(F)(F)F)NC(C(=O)C(F)(F)F)c1cc(C(F)(F)F)cc(Cl)c1-2 (stereo not drawn) [d-81]	99	35	100	100	90	–	–	–	–
COC(=O)CC1(C(=O)OC)Nc2c([S+](C)[O-])c(C#N)nn2-c2c(Cl)cc(C(F)(F)F)cc21 (stereo not drawn) [d-13]	82	26	89	99	81	–	–	–	–
N#CCC1(C(=O)C(F)(F)F)Nc2c([S+]([O-])C(F)(F)F)c(C#N)nn2-c2cncc(Cl)c21 (stereo not shown) [b-30]	90	25	94	100	85	–	–	–	–
COC(=O)CC1(C(=O)C(F)(F)F)Nc2c([S+]([O-])C(F)(F)F)c(C#N)nn2-c2cncc(Cl)c21 (stereo not shown) [b-28]	100	16	100	100	99	–	–	–	–
CN1c2c(Br)c(C#N)nn2-c2ccccc2C1(C)C [Compound A3]	–	–	–	–	–	90	100	100	mortality at 100 ppm (Solenopsis invicta; [6]): 25%; mortality at 100 ppm (Solenopsis invicta; [7]): 100%
COC(=O)C1(CC(=O)OCC(F)(F)F)Nc2c([S+]([O-])C(F)(F)F)c(C#N)nn2-c2cc(C(F)(F)F)cc(Cl)c21 (stereo not shown) [c-19]	100	20	100	100	100	–	–	–	–
COC(=O)C1(CC(=O)OCC(F)(F)F)Nc2c([S+]([O-])C(F)(F)F)c(C#N)nn2-c2c(C(F)(F)F)ccc(Cl)c21 (stereo not shown) [e-3]	100	20	98	100	95	–	–	–	–
CSc1nn2c(c1C#N)N(CCBr)C(F)(C(F)(F)F)c1ccccc1-2 (stereo not shown) [Compound A35]	–	–	–	–	–	100	100	100	mortality at 100 ppm (Solenopsis invicta; 24 h, read-out: Solenopsis invicta Mortality (%) 100 ppm 24 h): 31%; mortality at 100 ppm (Solenopsis invicta; 72 h, read-out: Solenopsis invicta Mortality (%) 100 ppm 72 h): 99%
CCc1nn2c(c1Br)NC(/C=C\C(=O)OC)(/C=C/C(=O)OC)c1cc(C(F)(F)F)cc(Cl)c1-2 (stereo not shown) [Compound C63]	–	–	–	–	–	98	96	90	mortality at 100 ppm (Solenopsis invicta; [6]): 29%; mortality at 100 ppm (Solenopsis invicta; [7]): 98%
Nc1ccc2c(c1)-n1nc(C(F)(F)F)c(Br)c1NC2(C(F)(F)F)C(F)(F)F [Compound A11]	–	–	–	–	–	100	100	100	mortality at 100 ppm (Solenopsis invicta; [6]): 34%; mortality at 100 ppm (Solenopsis invicta; [7]): 100%
N#Cc1nn2c(c1[S+]([O-])C(F)(F)F)NC(Cl)(CBr)c1cc(C(F)(F)F)cnc1-2 (stereo not shown) [a-45]	–	–	–	–	–	–	–	–	Plutella xylostella Mortality (%) 500 ppm (Plutella xylostella; [1]): 100%; Solenopsis invicta Mortality (%) 100 ppm 24 h (Solenopsis invicta; [2]): 20%; Solenopsis invicta Mortality (%) 100 ppm 72 h (Solenopsis invicta; [3]): 90%; Aphis craccivora Mortality (%) 500 ppm (Aphis craccivora; [4]): 100%; Spodoptera exigua Mortality (%) 500 ppm (Spodoptera exigua; [5]): 91%
COC(=O)/C=C/C1(CC#N)Nc2c([S+](C)[O-])c(C(C)=O)nn2-c2c(Cl)cc(C(F)(F)F)cc21 (stereo not shown) [Compound C60]	–	–	–	–	–	90	100	92	mortality at 100 ppm (Solenopsis invicta; [6]): 25%; mortality at 100 ppm (Solenopsis invicta; [7]): 92%
